Source: PMC5701182, “The Aβ oligomer eliminating D-enantiomeric peptide RD2 improves cognition without changing plaque pathology” (Scientific Reports, 2017)
Non-standard residues stand in square brackets, D forms with d. Residues, ends and D or L forms follow the SMILES beside them.

Key:
[1] = tested on: SH-SY5Y cells; assay: MTT cell viability assay, SH-SY5Y cells; type: cell-based, human; conditions: 5 µM RD2 without Aβ, one-way ANOVA n.s., p = 0.4
Protocol: (§1) MTT (3-(4,5-Dimethylthiazol-2-yl)-2,5-diphenyl-tetrazolium bromide) based cell viability assays were accomplished to examine the cytotoxicity of Aβ(1-42) in the presence of RD2 on two different cell lines, PC-12 (rat pheochromocytoma cell line), and SH-SY5Y (human neuroblastoma cell line) cells.
(§2) PC-12 cells (DSMZ, Germany) were cultured in DMEM medium supplemented with 10% fetal calf serum, 1% antibiotics (Penicillin/Streptomycin) (all Sigma-Aldrich, USA), and 5% horse serum (PAA Laboratories GmbH, Germany) on collagen A-coated (Biochrom GmbH, Germany) tissue culture flasks (SPL Life Sciences Co., Korea). SH-SY5Y cells (DSMZ, Germany) were cultured in DMEM medium supplemented with 20% fetal calf serum and 1% antibiotics (Penicillin/Streptomycin) (all Sigma-Aldrich, USA) on tissue culture flasks (SPL Life Sciences Co., Korea). Cells were allowed to grow in a humidified incubator with 5% CO2 at 37 °C and a maximum of 12 (PC-12 cells) or 21 (SH-SY5Y cells) passages. Medium was changed every two days and cells were passaged every three to five days, according to their confluence.
(§3) MTT test was performed according to the manufacturer’s protocol (CellProliferation Kit I; Roche, Switzerland). […] The arithmetic mean of all measurements per approach was calculated. Results are represented as the percentage of MTT reduction, assuming that the absorbance of control cells was 100%.

[2] = tested on: APP/PS1 mice; assay: Morris water maze; type: in vivo, mouse; conditions: 5.3 mg/kg/day RD2 i.p., placebo 19.0 ± 1 cm/s
Protocol: (§4) In this study, we treated seven months old female APP/PS1 mice intraperitoneally by use of Alzet osmotic minipumps (Alzet osmotic mini pumps, model #1004, Alzet, USA). Mice were either treated with 5.3 mg/kg/day RD2 (n = 11) or placebo (0.9% sodium chloride solution) (n = 10) as control group. The Alzet minipumps were soaked in sterile 0.9% sodium chloride solution for 24 h before implantation. The next day, the pumps were filled with the appropriate solution and implanted intraperitoneally. In short, mice were anesthetised with isoflurane, the skin and the muscle layer below were cut in the midline and the pump was inserted in the abdominal cavity. Following placement of the pump, the wound was sutured. Three weeks after the implantations, the mice were tested in different behavioural set ups. 28 days after the implantations, the mice were sacrificed for histopathological analysis. All mice of both groups were included in the experiments described below.
The mice were tested daily for one week in a water maze. Our version of the Morris water maze consists of a blue circular tank (120 cm diameter) filled with clear water (22 °C ± 1 °C). […] Mice were recorded with a camera driven tracker system (Ethovision XT10, Noldus, The Netherlands). It was analysed the time the mice needed to escape to the hidden platform (escape latency) and the time they spent in the target quadrant (probe trial).

[3] = target: T1, Aβ(1-42) fibril formation (Homo sapiens, UniProt P05067); assay: Thioflavin T (ThT) fibril formation assay; type: biochemical; conditions: 20 µM Aβ(1-42), 5 µM ThT, RD2 80-1.25 µM, 21 h, 37 °C; logistic fit; three replicates; read-out: IC50 of inhibition of Aβ(1-42) fibril formation
T1 construct: Synthetic and recombinant Aβ(1-42) with >95% purity was purchased as lyophilized powder; purchased Bachem (Germany) (synthetic) / Isoloid (Germany) (recombinant)
Protocol: The Thioflavin T (ThT) assay is a commonly used assay to visualize and quantify the fibrilisation of Aβ, since this dye binds to amyloidogenic cross-β-sheet structures. While Aβ aggregates into fibrils, the ThT fluorescence intensities increase until a saturation level is accomplished. Within this test, we analysed the inhibitory function of RD2 on the Aβ(1-42) fibril formation. 20 µM Aβ(1-42) was incubated with 5 µM ThT and different concentrations of RD2 (serial dilution from 80 µM till 1.25 µM) for IC50 calculation. ThT fluorescence was monitored over 21 h every 5 min at λex = 440 nm and λem = 490 nm in a fluorescence plate reader (Polarstar Optima, Germany) at 37 °C. Correction was done using all supplements without Aβ. For data evaluation, the fibril masses were determined by subtracting the baseline fluorescence intensities from the top and normalised to the Aβ control to calculate the inhibition in percent. The IC50 resulted from the compound concentration at the inflection point obtained by a logistic fit of the data (OriginPro 8.5 G, OriginLab, USA).

[4] = tested on: PC-12 cells; assay: MTT cell viability assay, PC-12 cells; type: cell-based, rat; conditions: 5 µM RD2 without Aβ, one-way ANOVA n.s., p = 0.4
Protocol: as §1, §2, §3

[5] = tested on: APP/PS1 mice; assay: Body weight and general health during intraperitoneal minipump treatment; type: in vivo, mouse; conditions: female APP/PS1 mice, 5.3 mg/kg/day RD2 i.p. by Alzet minipump
Protocol: For this study, 21 APP/PS1 double transgenic mice (APPSwedish/PS1ΔE9)[36] were used. The very well characterized APP/PS1 mouse model develops cognition deficits and abundant Aβ deposits already at early age. The original mice were purchased from JAX (The Jackson Laboratory, USA) and maintained in our own colony at the University of Alabama in Birmingham. Before treatment, the mice were housed in a controlled environment (humidity 50–60%, temperature 22 °C, light from 06:00 a.m. to 6:00 p.m.) with 4 animals per cage in our facility with food and water available ad libitum. After the implantation of the Alzet minipumps the mice were housed individually.
as §4, with “Three weeks after the implantations, the mice were tested in different behavioural set ups. 28 days after the implantations, the mice were sacrificed for histopathological analysis. All mice of both groups were included in the experiments described below.” left out

[6] = tested on: APP/PS1 mice; assay: Open field test; type: in vivo, mouse; conditions: APP/PS1 mice after three weeks of 5.3 mg/kg/day RD2 i.p.
Protocol: as §4
The open field test was performed to evaluate the activity and anxiety behaviour of the mice. The arena (42 cm × 42 cm surrounded with clear Plexiglass sides (20 cm high)) was subdivided into two areas: border and centre. […] Time spent in both areas was analysed. After each testing day and in between the mice, the apparatus was wiped out with chlorhexidine and 70% ethanol and allowed to air-dry.

[7] = previous pharmacokinetic studies of D3 and RD2; cited from earlier work
Excerpt: Nowadays, the inhibition of the formation of Aβ oligomers and the elimination of already present Aβ oligomers is thought to be one of the most promising strategies to modify disease progression according to the modified amyloid cascade hypothesis. Currently registered drugs can only ameliorate symptoms and cannot slow down disease progression. Previously, we have reported about a D-enantiomeric peptide, named “D3”, which was identified by mirror image phage display and solely consists of D-enantiomeric amino acid residues[21],[22]. D3 inhibits the formation of regular Aβ fibrils, eliminates di ...

[8] = tested on: APP/PS1 mice; assay: Zero maze; type: in vivo, mouse; conditions: APP/PS1 mice after three weeks of 5.3 mg/kg/day RD2 i.p., mean ± SEM, placebo 5.0 ± 0.6
Protocol: as §4
Similar to the open field test, the zero maze was used to assess the anxiety behaviour of the mice. The maze consisted of a circular arena (65 cm diameter) that is raised 40 cm above the table. The maze was separated into four equal parts, with two parts with 15 cm high walls of opaque material and two only 0.5 cm high walls. […] Analysed was the time mice spent in the open and closed arms. […]

[9] = target: T2, Aβ(1-42) oligomers (Homo sapiens, UniProt P05067); assay: QIAD assay (quantitative determination of interference with Aβ aggregate size distribution); type: biochemical
T2 construct: Synthetic and recombinant Aβ(1-42) with >95% purity was purchased as lyophilized powder; purchased Bachem (Germany) (synthetic) / Isoloid (Germany) (recombinant)
Protocol: For the evaluation of Aβ oligomer elimination of RD2, a QIAD assay (quantitative determination of interference with Aβ aggregate size distribution) was performed according to Brener et al.[23]. Briefly, 80 µM Aβ(1-42) was pre-incubated for 4.5 h to enrich Aβ oligomers. Then either RD2 or D3 were added to the pre-incubated solution with the resulting concentration of 20 µM RD2 or D3 and co-incubated for further 40 min. The samples were loaded on top of a density gradient containing 5 to 50% (w/v) iodixanol (OptiPrep, Axis-Shield, Norway) and centrifuged for 3 h at 4 °C and 259.000 × g (Optima TL-100, Beckman Coulter, USA). After centrifugation, 14 fractions à 140 μl were harvested by upward displacement. Fraction 1 from the top of the gradient was the least dense fraction while fraction 14 from just above the bottom was the densest fraction. The pellet of each tube was mixed with 60 µl of a 6 M guanidine hydrochloride solution and boiled for 10 min. The resulting solution represents fraction 15. All fractions were analysed with respect to their Aβ(1-42) content by analytical RP-HPLC (reversed phase-high performance liquid chromatography) and UV absorbance detection at 214 nm. The data for the D3 values and the Aβ(1-42) controls without compounds were already previously used in Brener et al.[23]. Analyses were done at least in quadruplicates (D3 and RD2 n = 4, Aβ(1-42) n = 11). […]

T2 sequence (P05067 672-713 limits assumed): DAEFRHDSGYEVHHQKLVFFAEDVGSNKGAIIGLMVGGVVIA
T1 sequence (P05067 672-713 limits assumed): as above

swimming speed in the Morris water maze [2]: 18.8 ± 1 cm/s
IC50 [3]: 7.7 µM
speed in the open field ([6]; mean ± SEM, placebo 8.9 ± 0.9 cm/s, SEM): 8.8 ± 0.7 cm/s
average speed of movement in the zero maze [8]: 4.8 ± 0.4 cm/s
reduction of the amount of Aβ oligomers in fractions 4 to 6 ([9]; 20 µM RD2 added to 80 µM Aβ(1-42) pre-incubated 4.5 h, co-incubated 40 min, density gradient centrifugation, RP-HPLC UV 214 nm, n = 4): 71%
IC50 ([9]; QIAD with pooled fractions 4 to 6, 1-40 µM RD2 on 80 µM Aβ(1-42), logistic fit, n = 3, read-out: IC50 of Aβ(1-42) oligomer elimination): 8.4 µM
SMILES: CC(C)C[C@@H](NC(=O)[C@H](NC(=O)[C@H]1CCCN1)[C@H](C)O)C(=O)N[C@H](Cc1c[nH]cn1)C(=O)N[C@@H](C(=O)N[C@H](Cc1c[nH]cn1)C(=O)N[C@H](CC(N)=O)C(=O)N[C@H](CCCNC(=N)N)C(=O)N[C@H](CCCNC(=N)N)C(=O)N[C@H](CCCNC(=N)N)C(=O)N[C@H](CCCNC(=N)N)C(=O)N[C@H](CCCNC(=N)N)C(N)=O)[C@H](C)O [RD2] (H-[dP][dT][dL][dH][dT][dH][dN][dR][dR][dR][dR][dR]-NH2)
cell viability with RD2 alone compared to buffer control [1]: did not result in any change of cell viability
cell viability with RD2 alone compared to buffer control [4]: did not result in any change of cell viability
physiological parameters, general health and discomfort ([5]; 28 days): neither changed any obvious physiological parameters
body weight ([5]; n = 11, placebo 25.7 ± 0.9 g, mean ± SEM, SEM): 26.8 ± 0.8 g
activity or anxiety levels versus placebo ([6]; open field and zero maze tests): no significant differences in activity or anxiety levels
bioavailability of RD2 compared to D3 [7]: higher bioavailability
